For series [1], the target named is T1, ICE (Homo sapiens, UniProt P29466).
T1 sequence (P29466 120-297 limits assumed): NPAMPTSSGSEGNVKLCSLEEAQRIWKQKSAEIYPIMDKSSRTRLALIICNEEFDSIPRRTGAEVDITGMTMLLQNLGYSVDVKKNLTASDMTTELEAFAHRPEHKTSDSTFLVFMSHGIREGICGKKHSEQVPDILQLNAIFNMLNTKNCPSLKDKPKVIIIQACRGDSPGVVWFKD
T1 sequence (P29466 317-404 limits assumed): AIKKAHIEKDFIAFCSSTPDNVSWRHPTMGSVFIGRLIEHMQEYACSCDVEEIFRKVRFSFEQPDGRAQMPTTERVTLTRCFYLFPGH
The experiment in a line: ICE Colorimetric Dose-Response (IC50) Assay. The class given is biochemical. The settings on record: 24 nM ICE, 60 min preincubation, 50 μM Ac-Tyr-Val-Ala-Asp-pNA, pH 7.5, 25° C. How it is done:
Aliquots of each dilution are transferred to a microtitre plate in triplicate.
(§1) ICE enzyme is diluted to approximately 24 nM in HGE buffer (100 mM Hepes pH 7.5, 0.5 mM EDTA, 20% glycerol, 0.1% Bovine Serum Albumin (BSA), and activated by adding dithiothreitol (DTT) to a final concentration of 5 mM. The activated enzyme is then aliquoted into wells containing inhibitor or vehicle, and the plate is preincubated for 60 minutes at ambient temperature. Substrate (Ac--Tyr--Val--Ala--Asp--pNA) is added to each well to a final concentration of 50 μM, and plates are placed in the microtitre plate-reader thermostated to 25° C. Beginning 5 minutes after addition of substrate, absorbance (405 nm) of wells is monitored for 1 hour, and activity is calculated as the mean rate of change in absorbance during this interval.

A short description of series [2]: PBMC viability (MTT), compound toxicity. The class given is cell-based. The settings on record: human, MTT viability, additional four hours, concentration which kills 50% of the cells, read-out: PBMC TC50. An excerpt: (§2) Further evidence that compounds of Formula I, II, and III are inhibitors of ICE is provided by their ability to inhibit IL-1β production in human peripheral blood mononuclear cells (PBMCs) as described herein. PBMCs are isolated from heparinized blood by centrifugation over a ficoll cushion, then washed three times with phosphate-buffered saline. PBMCs are suspended in a medium containing RPMI 1640 with glutamine, penicillin, streptomycin, and 2% human AB serum, then plated at 10^6 cells per well in 96 well flat bottom plates. PBMCs are stimulated overnight with 10 ng/mL of lipopolysaccharide (LPS, E. Coli strain 0111:B4; Calbiochem) in the presence or absence of a compound of Formula I. Medium is harvested and the level of mature IL-1β was determined using an ELISA kit from R & D Systems. Compound inhibition is assessed by determining the concentration of agent which reduces IL-1β levels by 50%. Cells were cultured for an additional four hours in the presence of 3-(4,5-dimethylthiazol-2-yl)-2,5-diphenyltetrazolium bromide (MTT) to determine viability. Compound toxicity can, therefore, be assessed by determining the concentration of agent which kills 50% of the cells (IC50).

Series [3] deals with IL-1β production in human peripheral blood mononuclear cells (PBMCs). The experiment in a line: PBMC Cellular Assay, inhibition of LPS-stimulated IL-1β production. The series is classed as cell-based. The settings on record: PBMC; mature IL-1β by ELISA, 10 ng/mL LPS overnight, 2% human AB serum.
Text: as §2
(An ELISA detects its analyte on a solid surface through an enzyme-linked reagent.)

In series [4] the target is T1, ICE. The experiment in a line: ICE inhibition, fluorometric Ki (Ac-Tyr-Val-Ala-Asp-AMC substrate). The class given is biochemical. The settings on record: 0.24 nM ICE, 15 μM Ac-Tyr-Val-Ala-Asp-AMC, reversible competitive model. How it is done: Substrate hydrolysis is monitored for 300 seconds by observing the fluorescence of released AMC using excitation at 380 nm and emission at 460 nm. Mean rates of substrate hydrolysis are evaluated by linear-regression analysis of the fluorescence vs time traces.

The target in a further series is T2, Ich-2 (Caspase-4) (Homo sapiens, UniProt P49662).
T2 sequence (P49662 81-270 limits assumed): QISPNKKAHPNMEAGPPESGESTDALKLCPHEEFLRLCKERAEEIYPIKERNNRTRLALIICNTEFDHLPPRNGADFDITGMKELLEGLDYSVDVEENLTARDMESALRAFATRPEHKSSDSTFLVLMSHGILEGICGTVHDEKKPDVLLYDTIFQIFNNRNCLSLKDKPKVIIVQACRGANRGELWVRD
T2 sequence (P49662 290-377 limits assumed): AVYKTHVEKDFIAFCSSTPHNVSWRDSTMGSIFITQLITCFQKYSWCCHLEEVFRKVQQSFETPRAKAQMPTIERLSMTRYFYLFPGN
The experiment in a line: Ich-2 (Caspase-4) Colorimetric Dose-Response (IC50) Assay. The class given is biochemical. The settings on record: 64 nM enzyme, 60 μM Ac-Leu-Glu-Val-Asp-pNA. How it is done: as §1
Inhibition of Ich-2 enzyme is assayed as described above for ICE, except that enzyme is used at 64 nM, and 60 μM of the Ich-2-specific substrate Ac--Leu--Glu--Val--Asp--pNA is used instead of the ICE substrate Ac--Tyr--Val--Ala--Asp--pNA.

One may read the IC50 as the concentration that inhibits the measured activity by half. High values mean weaker potency, low ones greater potency. Usually Ki stands for a measure of affinity in units of concentration, obtained from inhibition or displacement. In the case of `O=CC(CC(=O)O)NS(=O)(=O)c1ccccc1OC1CCCCC1` (centres unmarked) [Example 14, 3-(2-Cyclohexyloxy-Benzenesulfonylamino)-4-Oxo-Butyric Acid], the concentration for half-maximal inhibition (IC50) at ICE [1] is 20 µM; in series [3], 90 µM; against Ich-2 (Caspase-4), 35 µM. In series [2], the CC50 was more than 100 µM. The Ki at ICE [4] is 2.3 µM.
As to `O=CC(CC(=O)O)NS(=O)(=O)c1ccccc1Oc1ccc2ccccc2c1Cl` (centres unmarked) [Example 15, 3-[2-(1-Chloro-Naphthalen-2-Yloxy)-Benzenesulfonylamino]-4-Oxo-Butyric Acid], the concentration for half-maximal inhibition (IC50) is 5.1 µM on ICE [1], 50 µM in series [3] and 22 µM at Ich-2 (Caspase-4). Further, the CC50 in series [2] was more than 100 µM. Also, at ICE [4], the inhibitory constant (Ki) is 1 µM.
For `O=CC(CC(=O)O)NS(=O)(=O)c1ccccc1Oc1ccc2c(c1)CCCC2` (centres unmarked) [Example 16, 4-Oxo-3-[2-(5,6,7,8-Tetrahydro-Naphthalen-2-Yloxy)-Benzenesulfonylamino]-Butyric Acid], in that order: 5.8 µM, 65 µM, 42 µM, more than 100 µM and 1.3 µM.
Consider `O=CC(CC(=O)O)NS(=O)(=O)c1ccccc1OCCc1ccccc1` (centres unmarked) [Example 17, 4-Oxo-3-(2-Phenethyloxy-Benzenesulfonylamino)-Butyric Acid], for which the IC50 on ICE [1] was 9.2 µM; in series [3], 55 µM; at Ich-2 (Caspase-4), 63 µM. The CC50 in series [2] is more than 100 µM. The same compound showed a Ki on ICE [4] of 0.9 µM.
For `CCc1ccccc1Oc1ccccc1S(=O)(=O)NC(C=O)CC(=O)O` (centres unmarked) [Example 18, 3-[2-(2-Ethyl-Phenoxy)-Benzenesulfonylamino]-4-Oxo-Butyric Acid], in that order: 14 µM, 80 µM, 87 µM, more than 100 µM and 2 µM.
Regarding `CCC(C)c1ccc(Oc2ccccc2S(=O)(=O)NC(C=O)CC(=O)O)cc1` (centres unmarked) [Example 19, 3-[2-(4-Sec-Butyl-Phenoxy)-Benzenesulfonylamino]-4-Oxo-Butyric Acid], the IC50 came to 2.2 µM against ICE [1], 23 µM in series [3] and 4 µM on Ich-2 (Caspase-4). The CC50 in series [2] is more than 100 µM. At ICE [4], this compound registered an inhibition constant Ki of 0.5 µM.
Regarding `O=CC(CC(=O)O)NS(=O)(=O)c1ccccc1Oc1ccc(-c2ccccc2)cc1` (centres unmarked) [Example 20, 3-[2-(Biphenyl-4-Yloxy)-Benzenesulfonylamino]-4-Oxo-Butyric Acid], the IC50 against ICE [1] is 4.4 µM; in series [3], 40 µM; against Ich-2 (Caspase-4), 17 µM. In addition, in series [2], the CC50 is more than 100 µM. On ICE [4], affinity was put at a Ki of 0.3 µM.
In the same order, the values of `CCCCC(C)c1ccc(Oc2ccccc2S(=O)(=O)NC(C=O)CC(=O)O)cc1` (centres unmarked) [Example 21, 3-{2-[4-(1-Methyl-Pentyl)-Phenoxy]-Benzenesulfonylamino}-4-Oxo-Butyric Acid] are 6.1 µM, 33 µM, 31 µM, 70 µM and 0.6 µM.
For `O=CC(CC(=O)O)NS(=O)(=O)c1ccccc1OCc1ccccc1` (centres unmarked) [Example 23, 3-(2-Benzyloxy-Benzenesulfonylamino)-4-Oxo-Butyric Acid], in that order: 11 µM, 60 µM, 97 µM, more than 100 µM and 0.8 µM.
As to `Cc1cccc(Oc2ccccc2S(=O)(=O)NC(C=O)CC(=O)O)c1C` (centres unmarked) [Example 24, 3-[2-(2,3-Dimethyl-Phenoxy)-Benzenesulfonylamino]-4-Oxo-Butyric Acid], the results for the IC50 (against ICE [1]; in series [3]; against Ich-2 (Caspase-4)) were 13 µM, 73 µM and 122 µM, respectively. Further, in series [2], the CC50 is more than 100 µM. On ICE [4], the Ki worked out at 1 µM.

The record behind these values is patent US6083981A, “Sulfonamide substituted aspartic acid interleukin-1β converting enzyme inhibitors” (Warner-Lambert Company, priority 1999, dated 2000).
